{"source": "patent US6627760B1", "about": "“Amorphous compound” (AstraZeneca AB, priority 2001, dated 2003)", "key": {"[1]": {"assay": "Glass transition temperature by Thermal Mechanical Analysis (TMA)", "type": "physicochemical", "settings": "heating rate 10° C./min, 30-160° C.", "method": "The method involves compressing 140 mg of material in a punch and die (3 mm) to 2 KN. The compressed pellet was then placed on the TMA and the 1.1 mm probe placed on the top face. A heating rate of 10° C./min was used and the sample was heated from 30-160° C."}, "[2]": {"assay": "Glass transition temperature by Differential Scanning Calorimetry (DSC)", "type": "physicochemical", "settings": "dry amorphous lisinopril", "method": "Differential Scanning Calorimetry (DSC) was performed on approximately 0.5-3 mg sample, using a Mettler DSC820 instrument, according to standard methods, for example those described in Hohne et al. (1996) Differential scanning Calorimetry, Springer, Berlin."}, "[3]": {"settings": "cited from earlier work"}}}
{"smiles": "NCCCC[C@H](NC(CCc1ccccc1)C(=O)O)C(=O)N1CCC[C@H]1C(=O)O", "note": "(stereo partly drawn) [amorphous lisinopril, (S)-1-[N^2-(1-carboxy-3-phenylpropyl]-L-lysyl]-L-proline]", "values": [{"measurement": "glass transition temperature by TMA", "setting": "[1]", "result": 129, "unit": "°C"}, {"measurement": "glass transition temperature (Tg) by DSC", "setting": "[2]", "result": 125, "unit": "°C"}]}
{"smiles": "NCCCC[C@H](NC(CCc1ccccc1)C(=O)O)C(=O)N1CCC[C@H]1C(=O)O", "note": "(stereo partly drawn) [lisinopril, (S)-1-[N^2-(1-carboxy-3-phenylpropyl]-L-lysyl]-L-proline]", "values": [{"measurement": "effective half-life of accumulation", "setting": "[3]; multiple dosing", "result": "about 12.6 hours"}, {"measurement": "time to peak serum concentrations", "setting": "[3]; oral administration", "result": "≤ 7", "unit": "h"}]}
